In PMC5237291, “Sigma-2 receptor agonist derivatives of 1-Cyclohexyl-4-[3-(5-methoxy-1,2,3,4-tetrahydronaphthalen-1-yl)propyl]piperazine (PB28) induce cell death via mitochondrial superoxide production and caspase activation in pancreatic cancer” (BMC Cancer, 2017):
pEC50, pKi: −log10 of the molar value. Where two headings read alike, the source gives them in different places.

Experiments:
Panc02 cells [1] = assay: ROS interference in cell viability (MTT with antioxidants); format: cell-based, mouse; conditions: 24 h; for Protection against sigma-2 ligand induced cell death (Panc02 viability): antioxidant 100 μM one hour prior to sigma-2 ligands 50 μM
Description: The interference of ROS in cell viability was indirectly determined by MTT assay reported above at 24 h. On day 1, Panc02 cells were plated at a density of 2 × 10^4 cells/well in opaque 96-well, clear-bottom plates 24 h prior to treatment. On day 2, cells were treated with the drugs (50 μM) in the presence or absence of α-tocopherol (100 μM) or N-Acetyl-L-cysteine (100 μM). After incubation (24 h) with drugs, MTT assay was performed as above.

Panc02 cells [2] = assay: MTT cell viability, Panc02; format: cell-based; conditions: Mus musculus, 24 h treatment, viability relative to vehicle
Description: (§1) Determination of cell growth was performed using the MTT assay at 24 h. On day 1, pancreatic cancer cell lines were plated at a density of 2 × 10^4 cells/well in black clear-bottom 96-well plates for 24 h prior to treatment in a volume of 100 μL. On day 2, the cells were treated for 24 h with the various drugs concentration (1 μM-100 μM). Untreated cells served as a control. The various drug-solvents (EtOH, DMSO) were added in each control to evaluate a possible solvent cytotoxicity. After the established incubation time with drugs (24 h), MTT (0.5 mg/ml) was added to each well, and after 3–4 h incubation at 37 °C, the supernatant was removed. The formazan crystals were solubilized using 100 μl of DMSO/EtOH (1:1) and the absorbance values at 570 and 630 nm were determined on the multi-mode microplate reader (BioTek instruments, Winooski, VT). Different drug concentrations were assayed in triplicates.
(§2) Statistical analyses and data plotting were performed using GraphPad Prism software version 6.03 (San Diego, CA). Results were expressed as mean ± standard error of the mean of at least 3 biological replicates. EC50 values were calculated by curve fitting normalized viability versus drug concentration. Differences in viability, caspase-3 activity, and tumor volume were analyzed using two-way ANOVA to identify differences and confirmed with paired two tailed t-tests. Mann-Whitney test was used to compare the difference in CBC and biochemistry analyses. Kaplan-Meier survival analyses were used to assess differences between treatment groups and were compared using a log-rank test. A p-value < 0.05 was considered significant for all analyses.

KP02 cells = assay: MTT cell viability, KP02; format: cell-based, mouse; conditions: Mus musculus, 24 h, 24 h treatment, viability relative to vehicle
Description: as §1, §2

KCKO cells = assay: MTT cell viability, KCKO; format: cell-based; conditions: Mus musculus, 24 h treatment, viability relative to vehicle
Description: as §1, §2

caspase-3 = assay: Caspase-Glo caspase-3 activity in Panc02 cells; format: cell-based, mouse; conditions: for Caspase-3 activation (in words): compared to DMSO control
Description: Caspase-3 activity was measured in Panc02 cell lines with a Caspase-Glo® Assay Systems (Promega) according to protocol in which the reagent contain luminogenic caspase substrates that cleaved by activated caspase. […] The contents were then mixed using plate shaker for 30 s, and incubated at room temperature for 90 min. Luminescence signal was measured using multi-mode microplate reader (BioTek). Assay was performed in triplicates, and caspase activity was plotted compared cells treated with DMSO as a control.

MIAPaCa-2 cells = assay: MTT cell viability, MIAPaCa-2; format: cell-based; conditions: Homo sapiens, MIA PaCa-2, 24 h treatment, viability relative to vehicle
Description: as §1, §2

Panc-1 cells = assay: MTT cell viability, Panc-1; format: cell-based; conditions: Homo sapiens, 24 h treatment, viability relative to vehicle
Description: as §1, §2

BxPC3 cells = assay: MTT cell viability, BxPC3; format: cell-based, human; conditions: Homo sapiens, BXPC-3, 24 h, 24 h treatment, viability relative to vehicle
Description: as §1, §2

AsPC-1 cells = assay: MTT cell viability, AsPC-1; format: cell-based; conditions: Homo sapiens, ASPC1, 24 h treatment, viability relative to vehicle
Description: as §1, §2

[3] = Toxicity evaluation on mice not bearing tumor (CBC, serum chemistry, pathology); format: in vivo, C57BL/6 mice; conditions: for Off-target effects by necropsy and laboratory evaluations: naïve C57BL/6 mice, continuous daily treatment; for Creatinine: control 0.34 ± 0.02; for RBC: control 7.14 ± 0.1; for WBC: control 10.58 ± 0.2; for HGB: control 10.7 ± 0.7; for MCH: control 15 ± 0.54; for BUN: control 27 ± 0.4; for MCHC: control 29.2 ± 1.21; for HCT: control 36.6 ± 0.08; for MCV: control 51.2 ± 0.32; for Glucose: control 62 ± 12.5; for ALT: control 260 ± 21; for Platelets: control 486 ± 67
Description: […] Mice from each treatment cohort were assessed for pathologic evaluation (Digestive Diseases Research Core Center at our institution). Blood was collected for complete blood count (CBC) and biochemical analysis (AST, ALT, BUN, total protein, glucose and Cr). Organs were examined grossly and histologically.

Panc02 tumors = assay: In vivo tumor growth and survival, Panc02 tumors in C57BL/6 mice; conditions: for Effect on tumor volume (in words) / Mean tumor volume following conclusion of treatment: Panc02 s.c. in female C57BL/6; for Effect on tumor volume (in words): daily i.p. treatment, compared to vehicle or gemcitabine; for Mean tumor volume following conclusion of treatment: i.p. daily for two weeks (gemcitabine once weekly), vehicle mean = 924 mm^3
Description: In this pre-clinical model, we utilized the Panc02 cell line, which is weakly immunogenic in C57BL/6 mice and aggressive with a subcutaneous inoculum of 1 × 10^5 cells being lethal within 6–8 weeks. In vivo studies with mice were performed to compare the effect of sigma-2 ligands with gemcitabine. Mice treated with vehicle alone (a mixture of 5% DMSO, 5% EtOH, and 10% Cremophor in H2O) served as the control cohort. Female C57BL/6 mice (10 weeks old, National Cancer Institute Laboratories) were injected in the right flank with 200 μL of a single-cell suspension of Panc02 cells in non-supplemented RPMI medium (1 × 10^6 cells per mouse). Treatment began when the mean tumor diameter was ~ 5 mm. […] Tumors were measured three times weekly in two dimensions with a digital caliper, and tumor volumes were calculated by the standard formula of Tumor Volume = Length x Width^2 × 0.5. All mice were euthanized when tumors reached a diameter of 15 mm or had ulcerated.

sigma-2 receptor = conditions: ref Berardi, read-out: Affinity (Ki) σ2, cited from earlier work
Panc02 cells [4] = assay: MitoSOX Red mitochondrial superoxide by flow cytometry, Panc02; format: cell-based, mouse; conditions: all pancreatic cancer cell lines tested (Panc02, AsPC-1, KP02, BxPC3); sigma-2 ligands 50 μM, 2 h, with α-tocopherol
Description: MitoSOX™ Red reagent is a novel fluorogenic dye specifically targeted to mitochondria in live cells. Oxidation of MitoSOX™ Red reagent by superoxide produces red fluorescence. Mitochondrial superoxide is generated as a byproduct of oxidative phosphorylation. […] MitoSOX™ Red reagent is readily oxidized by superoxide but not by other ROS- or reactive nitrogen species (RNS)–generating systems. Panc02, AsPC-1, KP-2 or BxPC3 cells were seeded into 12-well plates 24 h before treatment with sigma-2 ligands (50 μM) for 2 h at 37°C in presence or absence of α-tocopherol (100 μM) followed by staining with MitoSOX™ Red (5 μM). Two hours after red dye addition, the cells were washed twice with PBS and harvested with trypsin/EDTA buffer. The cells were washed twice with PBS before analysis with FACSCalibur (BD Bioscience, San Jose, CA). The oxidation product of MitoSOX™ Red by mitochondrial superoxide fluoresces with an emission maximus of 580 nm and was detected in the FL3 channel. Experiment was performed in triplicates.

[5] = not tumor-bearing C57BL/6 mice, n = 3, daily i.p., 5 days

## CC(=O)N[C@@H](CS)C(=O)O [N-acetyl-L-cysteine (NAC), N-Acetyl-L-cysteine, reference compound]
Panc02 cells [1]
  Protection against sigma-2 ligand induced cell death (Panc02 viability): did not

## COc1cccc2c1CCCC2CCCN1CCN(C2CCCCC2)CC1 (centres unmarked) [PB28, 1-Cyclohexyl-4-[3-(5-methoxy-1,2,3,4-tetrahydronaphthalen-1-yl)propyl] piperazine]
Panc02 cells [2]
  pEC50: 4.37
KP02 cells
  pEC50: < 4.00
KCKO cells
  pEC50: 4.06
caspase-3; 200 μM, 5 h
  Caspase-3 activation (in words): did not activate at all
MIAPaCa-2 cells
  pEC50: 4.29
Panc-1 cells
  pEC50: < 4.00
BxPC3 cells
  pEC50: < 4.00
AsPC-1 cells
  pEC50: < 4.00
[3]
  Off-target effects by necropsy and laboratory evaluations: no major off-target effects
[3]; [5]
  Creatinine: 0.37 ± 0.04 mg/dL
  RBC: 10.24 ± 0.3 10^6/μL
  WBC: 11.11 ± 1.97 10^3/μL
  HGB: 15.65 ± 0.55 g/dL
  MCH: 15.3 ± 0.1 pg
  BUN: 32 ± 1 mg/dL
  MCHC: 29.3 ± 0.2%
  HCT: 53.4 ± 1.5%
  MCV: 52.15 ± 0.05 fL
  Glucose: 92.5 ± 22.5 mg/dL
  ALT: 249 ± 9 μ/L
  Platelets: 643.5 ± 95.5 10^3/μL
Panc02 tumors
  Effect on tumor volume (in words): decreased tumor volume similar to gemcitabine alone
  Mean tumor volume following conclusion of treatment: 369 mm^3
Panc02 tumors; Panc02 tumor-bearing C57BL/6 mice, treatment discontinued on day 15, DMSO (vehicle) 23 days
  Median survival: 27 days
sigma-2 receptor; et al. 2009 [26]
  pKi: 9.17

## COc1cccc2c(CCCN3CCN(C4CCCCC4)CC3)cccc12 [PB183, 1-Cyclohexyl-4-[3-(5-methoxynaphthalen-1-yl)propyl]-piperazine]
Panc02 cells [2]
  pEC50: 4.08
KP02 cells
  pEC50: 4.01
KCKO cells
  pEC50: 4.29
caspase-3; 200 μM, 5 h
  Caspase-3 activation (in words): little effect
MIAPaCa-2 cells
  pEC50: 4.31
Panc-1 cells
  pEC50: < 4.00
BxPC3 cells
  pEC50: 4.00
Panc02 cells [1]; Panc02 cells, ligand 50 μM with NAC 100 μM
  Cell death on co-treatment with NAC: even higher levels of cell death
AsPC-1 cells
  pEC50: < 4.00
[3]
  Off-target effects by necropsy and laboratory evaluations: no major off-target effects
[3]; [5]
  Creatinine: 0.37 ± 0.04 mg/dL
  RBC: 9.24 ± 0.9 10^6/μL
  WBC: 6.42 ± 1.22 10^3/μL
  HGB: 14.85 ± 1.35 g/dL
  MCH: 16.1 ± 0.1 pg
  BUN: 21 ± 2 mg/dL
  MCHC: 30.4 ± 0.7%
  HCT: 48.8 ± 3.3%
  MCV: 52.9 ± 1.6 fL
  ALT: 203 ± 34 μ/L
  Platelets: 727.5 ± 65.5 10^3/μL
[3]; not tumor-bearing C57BL/6 mice, n = 3, daily i.p., 5 days, control 5.6 ± 0.05
  AST: 5.4 ± 0.5 μ/L
Panc02 tumors
  Effect on tumor volume (in words): not effective
sigma-2 receptor; et al. 2004 [25]
  pKi: 8.03

## COc1cccc2c1CCCC2CCCN1CCC(C2CCCCC2)CC1 (centres unmarked) [PB221, 4-Cyclohexyl-1-[3-(5-methoxy-1,2,3,4-tetrahydronaphthalen-1-yl-propyl)]piperidine]
Panc02 cells [2]
  pEC50: 4.43
KP02 cells
  pEC50: < 4.00
KCKO cells
  pEC50: 4.72
caspase-3; 200 μM, 5 h
  Increase of caspase-3 activity compared to cells treated with DMSO vehicle: 15.7 fold
MIAPaCa-2 cells
  pEC50: 4.30
Panc-1 cells
  pEC50: < 4.00
BxPC3 cells
  pEC50: 4.00
AsPC-1 cells
  pEC50: < 4.00
[3]
  Off-target effects by necropsy and laboratory evaluations: no major off-target effects
[3]; [5]
  Creatinine: 0.35 ± 0.03 mg/dL
  RBC: 9.59 ± 0.71 10^6/μL
  WBC: 8.12 ± 0.14 10^3/μL
  HGB: 14.7 ± 0.8 g/dL
  MCH: 15.35 ± 0.35 pg
  BUN: 30.5 ± 3.5 mg/dL
  MCHC: 29.25 ± 0.55%
  HCT: 50.35 ± 3.75%
  MCV: 52.5 ± 0.02 fL
  Glucose: 64.5 ± 7.5 mg/dL
  ALT: 219 ± 5 μ/L
  Platelets: 563 ± 17 10^3/μL
Panc02 tumors
  Effect on tumor volume (in words): did not confer a significantly different tumor volume than vehicle alone
sigma-2 receptor; et al. 2009 [26]
  pKi: 7.73

## Nc1ccn([C@@H]2O[C@H](CO)[C@@H](O)C2(F)F)c(=O)n1 [gemcitabine, Gemcitabine, reference compound]
Panc02 tumors
  Mean tumor volume following conclusion of treatment: 395 mm^3

## Cc1c(C)c2c(c(C)c1O)CC[C@@](C)(CCC[C@H](C)CCC[C@H](C)CCCC(C)C)O2 [α-tocopherol, reference compound]
caspase-3; Z-DEVD-FMK 1 μM or α-tocopherol given before PB221, PB282 (200 μM, 5 h)
  Effect on caspase activation caused by PB221 or PB282: abrogates caspase-3 dependent cleavage
Panc02 cells [4]
  Effect on mitochondrial superoxide production following sigma-2 ligands treatment: strongly decreased
Panc02 cells [1]
  Protection against sigma-2 ligand induced cell death (Panc02 viability): protected against sigma-2 receptor ligands induced cell death
